Laboratory results as given in patent US8865770B2, “Carbamide peroxide treatments for the reproductive tract” (Vets Plus, Inc., priority 2011, dated 2014).

What was measured:
[1] = tested on: postpartum cows with retained placenta; assay: Clinical trials of intrauterine bolus in cows having retained placenta; assay type: in vivo; conditions: single bolus containing 3.5 grams carbamide peroxide inserted in the uterus
Method: Efficacy of carbamide peroxide administration in treating retained placenta was tested in clinical trials with cows having retained placenta. A single bolus containing 3.5 grams carbamide peroxide was inserted in the uterus of postpartum cows with retained placenta.

[2] = tested on: cow diagnosed with severe metritis and vaginitis; assay: Uterine flush (wash format) in a cow with severe metritis and vaginitis; assay type: in vivo; conditions: two boluses comprising 3.5 g carbamide peroxide dissolved in 1 quart of water, uterus flushed; cow 5 days after calving
Method: Efficacy of carbamide peroxide administration in a wash format was tested with a cow diagnosed with severe metritis and vaginitis. A cow that had calved 5 days previously presented a foul smelling uterine discharge. Upon clinical examination, it was discovered that remnants of the placenta were still in the uterus and that the animal was off feed. Antibiotics were not preferred for treatment, as sale of milk from the cow was very important. (Antibiotic residue in milk is not permitted if sale of milk is to occur.) Two boluses comprising 3.5 g carbamide peroxide were dissolved in 1 quart of water, and the uterus of the cow was flushed out with the flush. Within 24-48 hours, the uterine discharge had cleared, the cow was on feed again, and placental remnants were gone. The animal was able to be milked easier than prior to treatment, and the cow was returned to normal service in good health. As no antibiotics were used, the milk was not required to be discarded, and the owner was able to make financial gain from the sale of the milk.

[3] = tested on: cows diagnosed with metritis; assay: Clinical trials of intrauterine bolus in cows diagnosed with metritis; assay type: in vivo; conditions: single bolus containing 3.5 grams carbamide peroxide inserted in the uterus
Method: Efficacy of carbamide peroxide administration for treating metritis was tested in clinical trials with cows diagnosed with metritis. A single bolus containing 3.5 grams carbamide peroxide was inserted in the uterus of cows showing metritis symptoms such as foul uterine discharge. […] As no antibiotics were required in these cases, no milk had to be discarded. Because no milk was discarded, full financial benefit to the farmer was received for selling more milk than would have occurred if milk had to be discarded due to the presence of antibiotics. […] This indicates the carbamide peroxide administration is safe for use for the long term health of the cow and helps reduce subsequent reproduction failures.

[4] = tested on: metritis-causing organisms; assay: In vitro killing of bacteria in uterine discharge from a cow with confirmed metritis; assay type: cell-based
Method: In vitro testing: One-ml aliquots of uterine discharge from a cow with confirmed metritis were collected and diluted with 1 ml of water. The aliquots were incubated for 30 minutes at 37° C. either in the presence of 7.0% carbamide peroxide (test) or in the absence of carbamide peroxide (control). Bacteria from each treatment were washed and centrifuged, reconstituted in media, and plated on suitable culture media plates. The plates were incubated for three days. […] A similar experiment was conducted using urea in place of carbamide peroxide. The concentration of urea used was 11.3%. This is the equivalent amount of urea found in 4 urea boluses per 16 ounces of water, which is recommended for in vivo treatment using commercially available urea boluses.

| SMILES | foul uterine discharge after treatment [1] | shedding of retained placenta [1] | time until uterine discharge had cleared, cow on feed again, placental remnants gone [2] | feed intake during the treatment [3] | need for follow-up with antibiotics [3] | subsequent conception and calving (long-term safety) [3] | uterine discharge (metritis symptom) [3] | bacteria colonies on culture plates after treatment ([4]; 7.0% carbamide peroxide, 30 minutes at 37° C., plates incubated three days, control plates had hundreds of colonies) | bacteria colonies on culture plates after treatment ([4]; 11.3% urea in place of carbamide peroxide, similar experiment) |
| --- | --- | --- | --- | --- | --- | --- | --- | --- | --- |
| NC(N)=O.OO [carbamide peroxide] | no foul uterine discharge | The next day, the retained placenta was shed naturally | 24 to 48 h | did not go off feed | No follow-up with antibiotics were required | subsequently conceived safely and had healthy calves | improved and reduced quickly | no colonies were found | – |
| NC(N)=O [urea, reference compound] | – | – | – | – | – | – | – | – | several bacterial colonies still being present |
